Test results published in patent publication US8518372B2, “Coronin 1 modulators for the treatment of autoimmune and Lymphoproliferative disorders and mycobacterial infections” (priority 2006, dated 2013).
Like-named read-outs stand apart in the source and are kept apart here.

Assays:
[1] = tested on: Mycobacterium bovis BCG; format: cell-based
[2] = tested on: M. bovis BCG in bone marrow derived macrophages; format: cell-based, mice; conditions: for lysosomal delivery of mycobacteria: infection 1 h, chase 3 h
[3] = tested on: macrophages; assay: Macrophage viability
[4] = tested on: macrophages; assay: Protein synthesis in macrophages; format: cell-based, mice
[5] = tested on: bone marrow derived macrophages; assay: Calcium fluorimetry (Fluo3) in macrophages; format: cell-based, mice; conditions: Fluo-3, FIG. 10a
[6] = tested on: mycobacteria; assay: Bacterial proliferation in presence or absence of calcineurin inhibitors; format: cell-based; conditions: FIG. 10h

`CC(=O)OCOC(=O)CN(CC(=O)OCOC(C)=O)c1ccccc1OCCOc1ccccc1N(CC(=O)OCOC(C)=O)CC(=O)OCOC(C)=O` [BAPTA-AM] was tested, and the “survival of mycobacteria within macrophages” value ([1]; BAPTA-AM present, FIG. 10e) was “killed” and the “lysosomal delivery of mycobacteria” value ([2]; BAPTA-AM 1 μM, FIG. 10c,d) was “virtually all mycobacteria were transported to lysosomes”.
With `C[C@@H]1C[C@@H]([C@H](O)CC2CC(=O)NC(=O)C2)C(=O)[C@@H](C)C1` [cycloheximide] the survival of mycobacteria [1] was “did not result in alteration”, the “intracellular routing of mycobacteria” value [2] was “did not result in alteration” and the macrophage viability [3] was “without compromising macrophage viability”. For the same molecule, the protein synthesis [4] was “efficiently blocked protein synthesis”.
`C[C@H](CCC(=O)O)C[C@H](C)C[C@H](C)C(=O)/C=C(\O)[C@H](C)C[C@H](C)C/C=C/[C@@H](C)[C@@H](O)[C@@H](C)[C@@H](O)C[C@@H]1CC[C@@](C)([C@H]2CC[C@@](C)([C@@H](C)O)O2)O1` [ionomycin] was tested, and the “cytosolic Ca2+ flux upon stimulation” value ([5]; coronin 1 deficient macrophages) was “no Ca^2+ flux was observed” and the “cytosolic Ca2+ flux upon stimulation” value ([5]; macrophages from wild type mice) was “accompanied with a flux of cytosolic Ca^2+”.
With `C=CC[C@@H]1/C=C(\C)C[C@H](C)C[C@H](OC)[C@H]2O[C@@](O)(C(=O)C(=O)N3CCCC[C@H]3C(=O)O[C@H](/C(C)=C/[C@@H]3CC[C@@H](O)[C@H](OC)C3)[C@H](C)[C@@H](O)CC1=O)[C@H](C)C[C@@H]2OC` [FK506, tacrolimus] the “survival of mycobacteria within macrophages” value ([1]; wild type bone marrow derived macrophages, calcineurin inhibitor present, FIG. 10h) was “unable to survive within macrophages”, the “lysosomal delivery of mycobacteria” value ([2]; FK506 0.5 μM, FIG. 10g) was “complete relocation of mycobacteria to lysosomes” and the bacterial proliferation [6] was “identical in the presence or absence”.
